According to ChEMBL document CHEMBL3885881, “DrugMatrix”:

Species on record: Rattus norvegicus
Assay: DrugMatrix - Regimen: Daily Repeat
Assay type: toxicity, organism-based, Sprague-Dawley
Design: regimen Daily Repeat, gender Male, age 6-8 weeks
Conditions: in vivo, iv, vehicle 100 % SALINE; for ABSOLUTE BASOPHIL / ABSOLUTE EOSINOPHIL / ABSOLUTE LYMPHOCYTE / ABSOLUTE MONOCYTE / ABSOLUTE SEGMENTED NEUTROPHIL / BASOPHIL / EOSINOPHIL / ERYTHROCYTE COUNT / HEMATOCRIT / HEMOGLOBIN / LEUKOCYTE COUNT / LYMPHOCYTE / MEAN CORPUSCULAR HEMOGLOBIN / MEAN CORPUSCULAR HEMOGLOBIN CONCENTRATION / MEAN CORPUSCULAR VOLUME / MONOCYTE / NEUTROPHIL / NUCLEATED RED BLOOD CELLS / PLATELET COUNT: tissue Blood; for ALANINE AMINOTRANSFERASE / ALBUMIN / ALKALINE PHOSPHATASE / ASPARTATE AMINOTRANSFERASE / BLOOD UREA NITROGEN / CARBON DIOXIDE / CHLORIDE / CHOLESTEROL / CREATINE PHOSPHOKINASE / CREATININE / GLUCOSE / LACTATE DEHYDROGENASE / LIPASE / PHOSPHORUS / POTASSIUM / SODIUM / TOTAL BILIRUBIN / TOTAL PROTEIN / URIC ACID: tissue Plasma
[1] = 0.08 mg/kg, 120 h, dose level Low, time 5 day
[2] = 0.3 mg/kg, 72 h, dose level High, time 3 day
[3] = 0.3 mg/kg, 120 h, dose level High, time 5 day

CC[C@]1(O)C[C@@H]2CN(CCc3c([nH]c4ccccc34)[C@@](C(=O)OC)(c3cc4c(cc3OC)N(C)[C@H]3[C@@](O)(C(=O)OC)[C@H](OC(C)=O)[C@]5(CC)C=CCN6CC[C@]43[C@@H]65)C2)C1 [VINBLASTINE]
ABSOLUTE BASOPHIL [1]: 0 CELLS/uL | ABSOLUTE EOSINOPHIL [1]: 0 CELLS/uL | ABSOLUTE LYMPHOCYTE [1]: 7180.33 CELLS/uL | ABSOLUTE MONOCYTE [1]: 26.33 CELLS/uL | ABSOLUTE SEGMENTED NEUTROPHIL [1]: 293.33 CELLS/uL | BASOPHIL [1]: 0% | EOSINOPHIL [1]: 0% | ERYTHROCYTE COUNT [1]: 5.15 x10E6/uL | HEMATOCRIT [1]: 32.43% | HEMOGLOBIN [1]: 13 G/DL | LEUKOCYTE COUNT [1]: 7.5 x10E3/uL | LYMPHOCYTE [1]: 95.67% | MEAN CORPUSCULAR HEMOGLOBIN [1]: 25.27 pg | MEAN CORPUSCULAR HEMOGLOBIN CONCENTRATION [1]: 40.07 G/DL | MEAN CORPUSCULAR VOLUME [1]: 63.1 fL | MONOCYTE [1]: 0.33% | NEUTROPHIL [1]: 4% | NUCLEATED RED BLOOD CELLS [1]: 0 /100WBC | PLATELET COUNT [1]: 1437 x10E3/uL | ALANINE AMINOTRANSFERASE [1]: 44 u/L | ALBUMIN [1]: 3.93 G/DL | ALKALINE PHOSPHATASE [1]: 340.67 u/L | ASPARTATE AMINOTRANSFERASE [1]: 88.67 u/L | BLOOD UREA NITROGEN [1]: 16.67 mg/dL | CARBON DIOXIDE [1]: 28 mmol/L | CHLORIDE [1]: 101.33 MEQ/L | CHOLESTEROL [1]: 69.67 mg/dL | CREATINE PHOSPHOKINASE [1]: 599 u/L | CREATININE [1]: 0.2 mg/dL | GLUCOSE [1]: 212 mg/dL | LACTATE DEHYDROGENASE [1]: 334.67 u/L | LIPASE [1]: 10.67 u/L | PHOSPHORUS [1]: 13.3 mg/dL | POTASSIUM [1]: 5.71 MEQ/L | SODIUM [1]: 141.27 MEQ/L | TOTAL BILIRUBIN [1]: 0.2 mg/dL | TOTAL PROTEIN [1]: 5.83 G/DL | URIC ACID [1]: 1.77 mg/dL | ABSOLUTE BASOPHIL [2]: 0 CELLS/uL | ABSOLUTE EOSINOPHIL [2]: 0 CELLS/uL | ABSOLUTE LYMPHOCYTE [2]: 5650.33 CELLS/uL | ABSOLUTE MONOCYTE [2]: 34.67 CELLS/uL | ABSOLUTE SEGMENTED NEUTROPHIL [2]: 381.67 CELLS/uL | BASOPHIL [2]: 0% | EOSINOPHIL [2]: 0% | ERYTHROCYTE COUNT [2]: 4.96 x10E6/uL | HEMATOCRIT [2]: 31.5% | HEMOGLOBIN [2]: 12.67 G/DL | LEUKOCYTE COUNT [2]: 6.07 x10E3/uL | LYMPHOCYTE [2]: 93% | MEAN CORPUSCULAR HEMOGLOBIN [2]: 25.5 pg | MEAN CORPUSCULAR HEMOGLOBIN CONCENTRATION [2]: 40.23 G/DL | MEAN CORPUSCULAR VOLUME [2]: 63.4 fL | MONOCYTE [2]: 0.67% | NEUTROPHIL [2]: 6.33% | NUCLEATED RED BLOOD CELLS [2]: 0 /100WBC | PLATELET COUNT [2]: 588.33 x10E3/uL | ALANINE AMINOTRANSFERASE [2]: 129 u/L | ALBUMIN [2]: 4.03 G/DL | ALKALINE PHOSPHATASE [2]: 429 u/L | ASPARTATE AMINOTRANSFERASE [2]: 337.67 u/L | BLOOD UREA NITROGEN [2]: 15 mg/dL | CARBON DIOXIDE [2]: 31 mmol/L | CHLORIDE [2]: 102 MEQ/L | CHOLESTEROL [2]: 104 mg/dL | CREATINE PHOSPHOKINASE [2]: 645 u/L | CREATININE [2]: 0.16 mg/dL | GLUCOSE [2]: 167.33 mg/dL | LACTATE DEHYDROGENASE [2]: 246.33 u/L | LIPASE [2]: 10.67 u/L | PHOSPHORUS [2]: 11.6 mg/dL | POTASSIUM [2]: 5.31 MEQ/L | SODIUM [2]: 144.2 MEQ/L | TOTAL BILIRUBIN [2]: 0.47 mg/dL | TOTAL PROTEIN [2]: 5.83 G/DL | URIC ACID [2]: 1.07 mg/dL | ABSOLUTE BASOPHIL [3]: 0 CELLS/uL | ABSOLUTE EOSINOPHIL [3]: 11.33 CELLS/uL | ABSOLUTE LYMPHOCYTE [3]: 4520 CELLS/uL | ABSOLUTE MONOCYTE [3]: 22.67 CELLS/uL | ABSOLUTE SEGMENTED NEUTROPHIL [3]: 46 CELLS/uL | BASOPHIL [3]: 0% | EOSINOPHIL [3]: 0.33% | ERYTHROCYTE COUNT [3]: 5.7 x10E6/uL | HEMATOCRIT [3]: 34.73% | HEMOGLOBIN [3]: 13.5 G/DL | LEUKOCYTE COUNT [3]: 4.6 x10E3/uL | LYMPHOCYTE [3]: 98% | MEAN CORPUSCULAR HEMOGLOBIN [3]: 23.7 pg | MEAN CORPUSCULAR HEMOGLOBIN CONCENTRATION [3]: 38.87 G/DL | MEAN CORPUSCULAR VOLUME [3]: 61.03 fL | MONOCYTE [3]: 0.67% | NEUTROPHIL [3]: 1% | NUCLEATED RED BLOOD CELLS [3]: 0.33 /100WBC | PLATELET COUNT [3]: 95.67 x10E3/uL | ALANINE AMINOTRANSFERASE [3]: 423.33 u/L | ALBUMIN [3]: 3.6 G/DL | ALKALINE PHOSPHATASE [3]: 438.67 u/L | ASPARTATE AMINOTRANSFERASE [3]: 923 u/L | BLOOD UREA NITROGEN [3]: 14.67 mg/dL | CARBON DIOXIDE [3]: 33 mmol/L | CHLORIDE [3]: 96 MEQ/L | CHOLESTEROL [3]: 192.33 mg/dL | CREATINE PHOSPHOKINASE [3]: 622.67 u/L | CREATININE [3]: 0.1 mg/dL | GLUCOSE [3]: 121 mg/dL | LACTATE DEHYDROGENASE [3]: 415 u/L | LIPASE [3]: 10.67 u/L | PHOSPHORUS [3]: 10.6 mg/dL | POTASSIUM [3]: 5.16 MEQ/L | SODIUM [3]: 141.4 MEQ/L | TOTAL BILIRUBIN [3]: 5.67 mg/dL | TOTAL PROTEIN [3]: 5.83 G/DL | URIC ACID [3]: 0.7 mg/dL
